Test results as given in patent US8658661B2, “Oxadiazole inhibitors of leukotriene production” (Boehringer Ingelheim International GmbH, priority 2010, dated 2014).
pIC50: −log10 of the molar value. Read-outs that look alike come from different tables or passages of the source.

How the values were obtained:
[1] = molecular target: T1, recombinant human FLAP protein (Homo sapiens, UniProt P20292); assay: FLAP binding assay (SPA, displacement of [125I]L-691,831)
T1 construct: made in house; host or cells: Sf9 insect cells (100,000×g membrane pellet used)
T1 sequence (P20292 1-161): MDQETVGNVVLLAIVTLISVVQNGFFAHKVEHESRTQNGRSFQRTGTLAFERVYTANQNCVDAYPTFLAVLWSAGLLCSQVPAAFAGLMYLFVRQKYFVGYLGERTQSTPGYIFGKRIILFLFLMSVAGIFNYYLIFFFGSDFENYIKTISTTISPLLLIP
In short: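 Membranes from sf9 cells expressing human FLAP in pH 7.5 Tris buffer (MgCl2, EDTA, PMSF). Non-specific binding defined with 10 μM cold L-691,831.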

[2] = tested on: synthesis of LTB4 in human whole blood; assay: Human whole blood assay (inhibition of LTB4 synthesis, calcimycin stimulated); format: cell-based; conditions: heparinized human whole blood, calcimycin 20 μM, plasma LTB4
In short: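 Steps: compound plus heparinized human whole blood, 15 min at 37° C; add calcimycin to 20 μM final; incubate another 30 min at 37° C; centrifuge at low speed and collect plasma; measure LTB4 with a homogeneous time-resolved fluorescence immunoassay.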

[3] = membranes of sf9 cells expressing recombinant human FLAP, [125I]L-691,831 probe, read-out: FLAP binding IC50

Row | Structure (SMILES) | pIC50 [1, 3] | pIC50 [2] | pIC50 [1]
1 | CN(C)C(=O)Cn1cc(-c2nc([C@@](C)(c3ccc(-c4cnc5c(c4)OCCN5)cc3)C3CC3)no2)cn1 [Example 254, 2-[4-(3-{(R)-1-Cyclopropyl-1-[4-(3,4-dihydro-2H-pyrido[3,2-b][1,4]oxazin-7-yl)-phenyl]-ethyl}-[1,2,4]oxadiazol-5-yl)-pyrazol-1-yl]-N,N-dimethyl-acetamide] | 8.55 | 6.68 | –
2 | CC(C)[C@](C)(c1ccc(-c2cnc(N)nc2)cc1)c1noc(-c2cnn(CC(C)(C)O)c2)n1 [Example 107, 1-[4-(3-{(2R)-2-[4-(2-aminopyrimidin-5-yl)phenyl]-3-methylbutan-2-yl}-1,2,4-oxadiazol-5-yl)-1H-pyrazol-1-yl]-2-methylpropan-2-ol] | 9.07 | 7.77 | –
3 | C[C@@](c1ccc(-c2cnc(N)nc2)cc1)(c1noc(-c2cnn(C3CC3)c2)n1)C1CC1 [Example 271, 5-(4-{(R)-1-Cyclopropyl-1-[5-(1-cyclopropyl-1H-pyrazol-4-yl)-[1,2,4]oxadiazol-3-yl]-ethyl}-phenyl)-pyrimidin-2-ylamine] | 8.31 | 7.29 | –
4 | CC(C)(O)CNc1cnc(-c2nc([C@@](C)(c3ccc(-c4cnc(N)nc4)cc3)C3CC3)no2)cn1 [Example 50, 1-{[5-(3-{(1R)-1-[4-(2-aminopyrimidin-5-yl)phenyl]-1-cyclopropylethyl}-1,2,4-oxadiazol-5-yl)pyrazin-2-yl]amino}-2-methylpropan-2-ol] | 8.89 | 7.02 | –
5 | Cc1nc(N)cnc1-c1ccc(C(C)(c2noc(-c3cnn(CC(=O)N(C)C)c3)n2)C2CC2)cc1 (centres unmarked) [Example 245, 2-[4-(3-{1-[4-(5-Amino-3-methyl-pyrazin-2-yl)-phenyl]-1-cyclopropyl-ethyl}-[1,2,4]oxadiazol-5-yl)-pyrazol-1-yl]-N,N-dimethyl-acetamide] | 7.55 | 6.51 | –
6 | Cc1ccc(-c2nc(C(C)(c3ccc(-c4cnc(N)nc4)cc3)C3CC3)no2)cn1 (centres unmarked) [Example 29, 5-(4-{1-cyclopropyl-1-[5-(6-methylpyridin-3-yl)-1,2,4-oxadiazol-3-yl]ethyl}phenyl)pyrimidin-2-amine] | 8.28 | 6.72 | –
7 | CC(C)[C@](C)(c1ccc(-c2cnc(N)nc2)cc1)c1noc(-c2cn[nH]c2)n1 [Example 77, 5-(4-{(2R)-3-methyl-2-[5-(1H-pyrazol-4-yl)-1,2,4-oxadiazol-3-yl]butan-2-yl}phenyl)pyrimidin-2-amine] | 8.77 | 7.44 | –
8 | COc1ncc(-c2nc(C(C)(c3ccc(-c4cnc(N)nc4)cc3)C(C)C)no2)cn1 (centres unmarked) [Example 155, 5-(4-{2-[5-(2-methoxypyrimidin-5-yl)-1,2,4-oxadiazol-3-yl]-3-methylbutan-2-yl}phenyl)pyrimidin-2-amine] | 8.72 | 7.09 | –
9 | Cn1cc(-c2nc([C@@](C)(c3ccc(-c4cnc(N)nc4)cc3)C3CC3)no2)cn1 [Example 61, 5-(4-{(1R)-1-cyclopropyl-1-[5-(1-methyl-1H-pyrazol-4-yl)-1,2,4-oxadiazol-3-yl]ethyl}phenyl)pyrimidin-2-amine] | 8.89 | 7.82 | –
10 | CC(C)(CO)Nc1cnc(-c2nc([C@](C)(c3ccc(-c4cnc(N)nc4)cc3)C3CC3)no2)cn1 (single isomer, unassigned) [Example 57] | 8.17 | 6.82 | –
11 | CC(C)C(C)(c1ccc(-c2cnc(N)nc2)cc1)c1noc(-c2cn[nH]c2)n1 (centres unmarked) [Example 146, 5-(4-{3-methyl-2-[5-(1H-pyrazol-4-yl)-1,2,4-oxadiazol-3-yl]butan-2-yl}phenyl)pyrimidin-2-amine] | 8.89 | 7.34 | –
12 | CNC(=O)Cn1cc(-c2nc([C@](C)(c3ccc(-c4cnc(N)nc4)cc3)C3CC3)no2)cn1 [Example 231, 2-[4-(3-{(S)-1-[4-(2-Amino-pyrimidin-5-yl)-phenyl]-1-cyclopropyl-ethyl}-[1,2,4]oxadiazol-5-yl)-pyrazol-1-yl]-N-methyl-acetamide] | 6.92 | 6.15 | –
13 | CC(c1ccc(-c2cnc(N)nc2)cc1)(c1noc(-c2cncn2C2COC2)n1)C1CC1 (centres unmarked) [Example 206, 5-(4-{1-Cyclopropyl-1-[5-(3-oxetan-3-yl-3H-imidazol-4-yl)-[1,2,4]oxadiazol-3-yl]-ethyl}-phenyl)-pyrimidin-2-ylamine] | 7.64 | 6.51 | –
14 | COCCn1cc(-c2nc([C@](C)(c3ccc(-c4cnc(N)nc4)cc3)C3CCC3)no2)cn1 [Example 101, 5-{4-[(1S)-1-cyclobutyl-1-{5-[1-(2-methoxyethyl)-1H-pyrazol-4-yl]-1,2,4-oxadiazol-3-yl}ethyl]phenyl}pyrimidin-2-amine] | 6.55 | < 5.30 | –
15 | CN(C)C(=O)Cn1cc(-c2nc(C(C)(c3ccc(-c4cnc5[nH]ccc5n4)cc3)C3CC3)no2)cn1 (centres unmarked) [Example 247, 2-[4-(3-{1-Cyclopropyl-1-[4-(5H-pyrrolo[2,3-b]pyrazin-2-yl)-phenyl]-ethyl}-[1,2,4]oxadiazol-5-yl)-pyrazol-1-yl]-N,N-dimethyl-acetamide] | 8.23 | 6.52 | –
16 | CC(C)C(C)(c1ccc(-c2cnc(N)nc2)cc1)c1noc(C(=O)N2CCOCC2)n1 (centres unmarked) [Example 90, (3-{2-[4-(2-aminopyrimidin-5-yl)phenyl]-3-methylbutan-2-yl}-1,2,4-oxadiazol-5-yl)(morpholin-4-yl)methanone] | 7.20 | 5.82 | –
17 | COCCNc1cnc(-c2nc([C@@](C)(c3ccc(-c4cnc(N)nc4)cc3)C(C)C)no2)cn1 [Example 123, 5-{4-[(2R)-2-(5-{5-[(2-methoxyethyl)amino]pyrazin-2-yl}-1,2,4-oxadiazol-3-yl)-3-methylbutan-2-yl]phenyl}pyrimidin-2-amine] | 8.77 | 7.38 | –
18 | CC(C)Nc1ncc(-c2ccc([C@](C)(c3noc(-c4cnn(CC(=O)N(C)C)c4)n3)C3CC3)cc2)cn1 [Example 279, 2-[4-(3-{(R)-1-Cyclopropyl-1-[4-(2-isopropylamino-pyrimidin-5-yl)-phenyl]-ethyl}-[1,2,4]oxadiazol-5-yl)-pyrazol-1-yl]-N,N-dimethyl-acetamide] | 7.12 | < 5.30 | –
19 | COCCn1cc(-c2nc([C@@](C)(c3ccc(-c4cnc(N)nc4)cc3)C3CC3)no2)cn1 [Example 52, 5-{4-[(1R)-1-cyclopropyl-1-{5-[1-(2-methoxyethyl)-1H-pyrazol-4-yl]-1,2,4-oxadiazol-3-yl}ethyl]phenyl}pyrimidin-2-amine] | 8.62 | 7.59 | –
20 | CC(C)C(C)(c1ccc(-c2cnc(N)nc2)cc1)c1noc(N2CCC(CCO)CC2)n1 (centres unmarked) [Example 212, 2-[1-(3-{1-[4-(2-Amino-pyrimidin-5-yl)-phenyl]-1,2-dimethyl-propyl}-[1,2,4]oxadiazol-5-yl)-piperidin-4-yl]-ethanol] | 7.92 | 7.07 | –
21 | CC(C)[C@](C)(c1ccc(-c2cnc(N)nc2)cc1)c1noc(-c2cnn(C)c2)n1 (single isomer, unassigned) [Example 46] | – | 7.48 | 8.80
22 | CC(C)C(C)(c1ccc(-c2cnc(N)nc2)cc1)c1noc(-c2cccc(=O)n2C)n1 (centres unmarked) [Example 165, 6-(3-{2-[4-(2-aminopyrimidin-5-yl)phenyl]-3-methylbutan-2-yl}-1,2,4-oxadiazol-5-yl)-1-methylpyridin-2(1H)-one] | 8.68 | 7.05 | –
23 | CNC(=O)Cn1cc(-c2nc(C(C)(c3ccc(-c4cnc(N)nc4)cc3)C3CC3)no2)cn1 (centres unmarked) [Example 60, 2-[4-(3-{1-[4-(2-aminopyrimidin-5-yl)phenyl]-1-cyclopropylethyl}-1,2,4-oxadiazol-5-yl)-1H-pyrazol-1-yl]-N-methylacetamide] | 8.40 | 6.85 | –
24 | CC(C)C(C)(c1ccc(-c2cnc(N)nc2)cc1)c1noc(-c2ccc(=O)[nH]c2)n1 (centres unmarked) [Example 9, 5-(3-{2-[4-(2-aminopyrimidin-5-yl)phenyl]-3-methylbutan-2-yl}-1,2,4-oxadiazol-5-yl)pyridin-2(1H)-one] | 8.54 | 6.68 | –
25 | CN(C)C(=O)Cn1cc(-c2nc([C@@](C)(c3ccc(-c4cnc(N)c(C(F)(F)F)c4)cc3)C3CC3)no2)cn1 [Example 281, 2-[4-(3-{(R)-1-[4-(6-Amino-5-trifluoromethyl-pyridin-3-yl)-phenyl]-1-cyclopropyl-ethyl}-[1,2,4]oxadiazol-5-yl)-pyrazol-1-yl]-N,N-dimethyl-acetamide] | 8.30 | 6.80 | –
26 | CC(C)C(C)(c1ccc(-c2cnc(N)nc2)cc1)c1noc(N2CCNCC2)n1 (centres unmarked) [Example 83, 5-(4-{3-methyl-2-[5-(piperazin-1-yl)-1,2,4-oxadiazol-3-yl]butan-2-yl}phenyl)pyrimidin-2-amine] | 7.59 | 5.96 | –
27 | CNC(=O)Cn1cc(-c2nc(C(C)(c3ccc(-c4cnc(N)nc4)cc3)C(C)C)no2)cn1 (centres unmarked) [Example 142, 2-[4-(3-{2-[4-(2-aminopyrimidin-5-yl)phenyl]-3-methylbutan-2-yl}-1,2,4-oxadiazol-5-yl)-1H-pyrazol-1-yl]-N-methylacetamide] | 8.96 | 7.23 | –
28 | COCCn1cc(-c2nc([C@@](C)(c3ccc(-c4ccc(N)nc4)cc3)C3CC3)no2)cn1 [Example 183, 5-[4-((R)-1-Cyclopropyl-1-{5-[1-(2-methoxy-ethyl)-1H-pyrazol-4-yl]-[1,2,4]oxadiazol-3-yl}-ethyl)-phenyl]-pyridin-2-ylamine] | 8.26 | 7.41 | –
